Source: the Deep4Chem optical property database
Blank lines part the entries; values can stand above or below the compound they belong to.

Assay: photoluminescence quantum yield (fraction); solvent given as SMILES
[1] = in c1ccc2c(c1)c1ccccc1n2-c1ccc(-c2ccc(-n3c4ccccc4c4ccccc43)cc2)cc1
[2] = in O=P(c1ccccc1)(c1ccccc1)c1ccccc1Oc1ccccc1P(=O)(c1ccccc1)c1ccccc1

photoluminescence quantum yield (in ClCCl): 0.12
Structure (SMILES): CN(C)c1ccc(-c2nc(-c3ccccc3)c3ccccn23)cc1

photoluminescence quantum yield (in ClC(Cl)Cl): 0
Structure (SMILES): Cc1nc2c(ccc3c2sc(/C=C/c2ccc(N(c4ccccc4)c4ccccc4)cc2)[n+]3C)s1

photoluminescence quantum yield (in CCO): 0.94
photoluminescence quantum yield (in O): 0.95
Structure (SMILES): CC/[NH+]=c1\cc2oc3cc(NC)c(C)cc3c(-c3ccccc3C(=O)OCC)c-2cc1C

Structure (SMILES): CCCCCCCCn1c2ccc(/C=C/c3ccc(N(c4ccccc4)c4ccccc4)cc3)cc2c2cc3c(cc21)c1cc(/C=C/c2ccc(N(c4ccccc4)c4ccccc4)cc2)ccc1n3CCCCCCCC
photoluminescence quantum yield (in Cc1ccccc1): 0.6

photoluminescence quantum yield (in ClC(Cl)Cl): 0.78
Structure (SMILES): CCCCCCN1C(=O)c2cc(-c3ccc(-n4c5ccccc5c5ccccc54)cc3)c(-c3ccc(-n4c5ccccc5c5ccccc54)cc3)cc2C1=O
photoluminescence quantum yield [1]: 0.7

photoluminescence quantum yield (in ClCCl): 0.167
Structure (SMILES): COC(=O)c1[nH]c(-c2ccccc2)c2nnc3c4ccccc4oc3c12

photoluminescence quantum yield (in ClCCl): 0.01
Structure (SMILES): CSc1ccc(/C=C/c2ccncn2)cc1

photoluminescence quantum yield (in ClC(Cl)Cl): 0.38
Structure (SMILES): CCCCCCn1c2ccccc2c2cc(/C=C/c3cc(=O)oc4cc(C)ccc34)ccc21

photoluminescence quantum yield (in ClCCl): 0.2
Structure (SMILES): CCc1ccc(C2=[N+]3C(=Cc4c5ccc(OC)cc5c(-c5ccc(CC)s5)n4[B-]3(F)F)c3ccc(OC)cc32)s1

Structure (SMILES): COCCC1=Cc2nc1ccc1[nH]c(cc1CCOC)c1nc(c(OC(C)=O)cc3[nH]c2cc3CCOC)C(CCOC)=C1
photoluminescence quantum yield (in Cc1ccccc1): 0.27

Structure (SMILES): CCn1c2ccccc2c2cc(C#Cc3cc(C#Cc4ccc5c(c4)c4ccccc4n5CC)nc(SC)n3)ccc21
photoluminescence quantum yield (in C1CCOC1): 0.61
photoluminescence quantum yield (in CCOC(C)=O): 0.62
photoluminescence quantum yield (in CN(C)C=O): 0.56
photoluminescence quantum yield (in Cc1ccccc1): 0.53
photoluminescence quantum yield (in ClCCl): 0.64

photoluminescence quantum yield (in ClCCl): 0.08
Structure (SMILES): CCN(CC)c1ccc2c(-c3ccccc3C(=O)O)c3c([o+]c2c1)/C(=C/c1ccc2c(c1)c1ccccc1n2CC)CCC3

Structure (SMILES): CC(C)(C(=O)c1ccc(N2c3ccccc3C(C)(C)c3ccccc32)cc1)C(=O)c1ccc(N2c3ccccc3C(C)(C)c3ccccc32)cc1
photoluminescence quantum yield [1]: 0.64

photoluminescence quantum yield (in C1CCOC1): 0.0575
Structure (SMILES): C[Si]1(c2ccccc2)C(c2ccc3c4ccccc4n(-c4ccccc4)c3c2)=C(c2ccccc2)C(c2ccccc2)=C1c1ccc2c3ccccc3n(-c3ccccc3)c2c1

Structure (SMILES): F[B-]1(F)n2cccc2C(c2c3ccccc3c(-c3ccccc3)c3ccccc23)=C2C=CC=[N+]21
photoluminescence quantum yield (in CC#N): 0.001
photoluminescence quantum yield (in CCO): 0.002
photoluminescence quantum yield (in CN(C)C=O): 0.001
photoluminescence quantum yield (in Cc1ccccc1): 0.007
photoluminescence quantum yield (in ClCCl): 0.002

photoluminescence quantum yield (in CS(C)=O): 0.302
Structure (SMILES): CCN1\C(=C/C=C/C=C/C2=[N+](CC)c3ccc4ccccc4c3C2(C)C)C(C)(C)c2c1ccc1ccccc21

photoluminescence quantum yield (in CS(C)=O): 0.89
Structure (SMILES): Cc1ccc(-c2nc3sc4ccccc4c3s2)cc1

Structure (SMILES): O=C1O[B-]2(OC1=O)OC(c1ccc3ccccc3c1)=CC(c1ccc3ccccc3c1)=[O+]2
photoluminescence quantum yield (in CC#N): 0.3
photoluminescence quantum yield (in ClC(Cl)(Cl)Cl): 0.8

Structure (SMILES): CC1(C)c2ccccc2N(c2ccc(-c3ccc4c(c3)C(=O)c3ccc(-c5ccc(N6c7ccccc7C(C)(C)c7ccccc76)cc5)cc3C4=O)cc2)c2ccccc21
photoluminescence quantum yield (in Cc1ccccc1): 0.17
photoluminescence quantum yield [1]: 0.5

Structure (SMILES): CC[N+]1(CC)CN2C(=N1)C(C(=O)O)=Cc1cc(F)ccc12
photoluminescence quantum yield (in O): 0.344

Structure (SMILES): CCCCCCc1ccc2c3c(ccc2c1)O[B-](c1ccccc1)(c1ccccc1)[N+](c1cc([N+]2=Cc4c(ccc5cc(CCCCCC)ccc45)O[B-]2(c2ccccc2)c2ccccc2)cc([N+]2=Cc4c(ccc5cc(CCCCCC)ccc45)O[B-]2(c2ccccc2)c2ccccc2)c1)=C3
photoluminescence quantum yield (in C1CCOC1): 0.21
photoluminescence quantum yield (in CC#N): 0.19
photoluminescence quantum yield (in Cc1ccccc1): 0.29
photoluminescence quantum yield (in ClCCl): 0.31

Structure (SMILES): Cc1ccc(N(c2ccc(C)cc2)c2ccc3c(c2)c2cc(N(c4ccc(C)cc4)c4ccc(C)cc4)ccc2n3-c2ccc(-c3nc4cccc5c4n3-c3ccccc3C5(C)C)cc2)cc1
photoluminescence quantum yield (in Cc1ccccc1): 0.85
photoluminescence quantum yield [2]: 0.45

photoluminescence quantum yield (in ClCCl): 0.8
Structure (SMILES): Fc1ccc(N(c2ccccc2)c2ccc3ccc4c(N(c5ccccc5)c5ccc(F)cc5)ccc5ccc2c3c54)cc1

photoluminescence quantum yield (in ClC(Cl)Cl): 0.72
Structure (SMILES): N#CC1=CC(C=O)=CC(C#N)=P1(c1ccccc1)c1ccccc1

photoluminescence quantum yield (in C1COCCO1): 0.95
photoluminescence quantum yield (in CC#N): 0.75
photoluminescence quantum yield (in CO): 0.76
photoluminescence quantum yield (in ClCCl): 0.95
Structure (SMILES): COC(=O)c1nc2c(N)nc(N(C)C)nc2n1Cc1ccccc1

photoluminescence quantum yield (in C1CCCCC1): 0.048
photoluminescence quantum yield (in C1CCOC1): 0.88
photoluminescence quantum yield (in CC#N): 0.69
photoluminescence quantum yield (in CO): 0.021
Structure (SMILES): COc1c(-c2ccc(N(C)C)cc2)oc2ccccc2c1=O

photoluminescence quantum yield (in C1CCOC1): 0.048
Structure (SMILES): CCCCC1(CCCC)c2cc(C#Cc3ccc(C=C(c4ccccc4)c4ccccc4)cc3)ccc2-c2ccc(C#Cc3ccc(C=C(c4ccccc4)c4ccccc4)cc3)cc21

Structure (SMILES): c1ccc(-c2nc(-c3ccccc3)nc(-c3ccc(-n4c5ccccc5c5c6oc7ccccc7c6ccc54)cc3)n2)cc1
photoluminescence quantum yield [2]: 0.853

photoluminescence quantum yield (in ClCCl): 0.2
Structure (SMILES): F[B-]12OC(c3ccccc3)=Nc3cccc([n+]31)N=C(c1ccccc1)O2

photoluminescence quantum yield (in CCCO): 0.65
Structure (SMILES): CCOC(=O)c1ccc2c(c1)sc1c3ccc(C(=O)OCC)cc3n(C)c21

photoluminescence quantum yield (in C1CCCCC1): 0.31
Structure (SMILES): COc1ccc(-c2ccc(OC)cc2)cc1

Structure (SMILES): CCCCCCCCCCCCC(CCCCCCCCCC)Cn1c2cc(/C=C/c3nc4ccccc4s3)c3cccc4c5cccc6c(/C=C/c7nc8ccccc8s7)cc1c(c65)c2c34 (configuration not stated)
photoluminescence quantum yield (in C1CCCCC1): 0.42
photoluminescence quantum yield (in CC#N): 0.434
photoluminescence quantum yield (in Cc1ccccc1): 0.398
photoluminescence quantum yield (in ClCCl): 0.369

photoluminescence quantum yield (in CCO): 0.0588
photoluminescence quantum yield (in ClCCl): 0.0292
photoluminescence quantum yield (in O): 0.07
Structure (SMILES): Oc1ccc(-c2ccco2)cc1-c1nc2ccccc2s1

photoluminescence quantum yield (in C1CCOC1): 0.88
photoluminescence quantum yield (in C1COCCO1): 0.78
photoluminescence quantum yield (in CC#N): 0.75
photoluminescence quantum yield (in CC(C)O): 0.52
photoluminescence quantum yield (in CCO): 0.47
photoluminescence quantum yield (in CCOC(C)=O): 0.87
photoluminescence quantum yield (in CN(C)C=O): 0.89
photoluminescence quantum yield (in CO): 0.36
photoluminescence quantum yield (in CS(C)=O): 0.93
photoluminescence quantum yield (in O): 0.57
Structure (SMILES): NS(=O)(=O)c1ccc(N2N=C(c3ccc(O)cc3)CC2c2ccc(F)cc2)cc1 (configuration not stated)

Structure (SMILES): COc1ccc(N(c2ccccc2)c2ccc(OC)cc2)cc1
photoluminescence quantum yield (in Cc1ccccc1): 0.03

photoluminescence quantum yield (in ClCCl): 0.34
Structure (SMILES): COC(=O)/C=C/C1=CC2=C(c3c(C)cc(C)cc3C)c3cccn3[B-](F)(F)[N+]2=C1

photoluminescence quantum yield (in CC#N): 0.12
Structure (SMILES): COc1cccc(-c2nc3c([nH]2)C2=CC(=O)S[C@]2(C)[C@@]2(C)SC(=O)C=C32)c1OC

photoluminescence quantum yield (in C1COCCO1): 0.355
Structure (SMILES): COC(=O)c1ccc(/C=C2\C=C(c3ccc(OC)c(OC)c3)OC2=O)cc1

photoluminescence quantum yield (in ClC(Cl)Cl): 0.18
Structure (SMILES): COc1ccc(N(c2ccc(OC)cc2)c2ccc(-c3ccc(-c4ccc(-c5ccc(-c6ccc(N(c7ccc(OC)cc7)c7ccc(OC)cc7)cc6)s5)c5nsnc45)s3)cc2)cc1

Structure (SMILES): CCC1(CC)c2cc(/C=C/c3ccc(N(c4ccccc4)c4ccccc4)cc3)ccc2-c2ccc(/C=C/c3ccc(N(c4ccccc4)c4ccccc4)cc3)cc21
photoluminescence quantum yield (in Cc1ccccc1): 0.84

photoluminescence quantum yield (in CO): 0.004
Structure (SMILES): N[C@@H](Cn1nnc2cc(-c3ccc(N4CCOCC4)cc3)ccc21)C(=O)O

Structure (SMILES): CCCCCCCCC1(CCCCCCCC)c2cc(-c3ccc(C(F)(F)F)cc3)ccc2-c2ccc(N(c3ccc(-n4c5ccccc5c5ccccc54)cc3)c3ccc4c(c3)C(CCCCCCCC)(CCCCCCCC)c3cc(-c5ccc(C(F)(F)F)cc5)ccc3-4)cc21
photoluminescence quantum yield (in C1CCOC1): 0.61
photoluminescence quantum yield (in C1COCCO1): 0.71
photoluminescence quantum yield (in CC#N): 0.46
photoluminescence quantum yield (in CC(C)=O): 0.51
photoluminescence quantum yield (in CCCCCC): 0.6
photoluminescence quantum yield (in CCCCOCCCC): 0.67
photoluminescence quantum yield (in CCN(CC)CC): 0.52
photoluminescence quantum yield (in CCOC(C)=O): 0.54
photoluminescence quantum yield (in CCOCC): 0.76
photoluminescence quantum yield (in CN(C)C=O): 0.52
photoluminescence quantum yield (in CS(C)=O): 0.47
photoluminescence quantum yield (in Cc1ccccc1): 0.67
photoluminescence quantum yield (in ClC(Cl)Cl): 0.47
photoluminescence quantum yield (in ClCCl): 0.57
photoluminescence quantum yield (in c1ccccc1): 0.63

Structure (SMILES): Cc1cc(-c2nnc(-c3ccccc3)o2)ccc1-n1c2ccccc2c2ccccc21
photoluminescence quantum yield (in Cc1ccccc1): 0.56

Structure (SMILES): CC1(C)c2ccccc2N(c2ccccc2)c2ccc(-c3nc(-c4ccccc4)nc(-c4ccccc4)n3)cc21
photoluminescence quantum yield [2]: 0.55

Structure (SMILES): CC(C)(C)c1ccc2c(c1)c1cc(C(C)(C)C)ccc1n2-c1c(C#N)c(-n2c3ccc(C(C)(C)C)cc3c3cc(C(C)(C)C)ccc32)c(-n2c3ccc(C(C)(C)C)cc3c3cc(C(C)(C)C)ccc32)c(-n2c3ccc(C(C)(C)C)cc3c3cc(C(C)(C)C)ccc32)c1-n1c2ccc(C(C)(C)C)cc2c2cc(C(C)(C)C)ccc21
photoluminescence quantum yield (in Cc1ccccc1): 0.86

photoluminescence quantum yield (in ClC(Cl)Cl): 0.75
Structure (SMILES): Cc1ccc(C2=Cc3ccc4ccccc4[n+]3[B-](F)(F)O2)cc1

photoluminescence quantum yield (in ClCCl): 0.1
Structure (SMILES): Cc1ccc(C#Cc2c3cc4ccccc4cc3c(C#C[Si](C(C)C)(C(C)C)C(C)C)c3cc4ccccc4cc23)cc1

Structure (SMILES): CC(C)(C)c1ccc(C2=c3c(c4ccc(C(C)(C)C)cc4c4cc(C(C)(C)C)ccc34)=[N+]3C2=C(c2ccccc2)c2c(-c4ccc(C(C)(C)C)cc4)c4c5ccc(C(C)(C)C)cc5c5cc(C(C)(C)C)ccc5c4n2[B-]3(F)F)cc1
photoluminescence quantum yield (in C1CCCCC1): 0.44
photoluminescence quantum yield (in C1CCOC1): 0.45
photoluminescence quantum yield (in CC#N): 0.27
photoluminescence quantum yield (in Cc1ccccc1): 0.46
photoluminescence quantum yield (in ClCCl): 0.45

photoluminescence quantum yield (in C1CCOC1): 0.013
Structure (SMILES): C1=C2c3cc4ccccc4cc3C3=[N+]2[B-]2(Oc4ccccc43)Oc3ccccc3-c3c4cc5ccccc5cc4c1n32 (configuration not stated)

photoluminescence quantum yield (in ClCCl): 0.92
Structure (SMILES): CCCCCCC1(CCCCCC)c2ccccc2-c2ccc(-c3ccc(-c4cc(-c5ccccn5)nc(-c5ccccn5)c4)cc3)cc21

Structure (SMILES): Cc1cc(C)c(B(c2ccccc2-n2c3ccccc3c3ccccc32)c2c(C)cc(C)cc2C)c(C)c1
photoluminescence quantum yield (in Cc1ccccc1): 0.79

Structure (SMILES): c1ccc(-c2nc3c(ccc4[nH]ccc43)o2)cc1
photoluminescence quantum yield (in C1CCCCC1): 0.6
photoluminescence quantum yield (in C1COCCO1): 0.78
photoluminescence quantum yield (in CC#N): 0.72
photoluminescence quantum yield (in CO): 0.55
photoluminescence quantum yield (in Cc1ccccc1): 0.69
photoluminescence quantum yield (in O): 0.54

photoluminescence quantum yield (in ClCCl): 0.196
Structure (SMILES): CCCCCCCCCCCCN1C(=O)c2c(c3ccc4cc(-c5ccc(OC)cc5)c(OC)cc4c3c3c2ccc2cc(-c4ccc(OC)cc4)c(OC)cc23)C1=O
